Measurements: US8183364B2, “Substituted porphyrins” (Duke University, priority 2004, dated 2012)

What was measured:
[1] = Kinetic salt effect on O2.^− dismutation by cytochrome c assay; assay type: biochemical; settings: 0.05 M phosphate buffer, pH 7.8, 0-0.4 M NaCl
Procedure: Kinetic salt effect. The dependence of the catalytic rate constant for the O2.^− dismutation upon ionic strength was determined by cytochrome c assay (McCord and Fridovich, J. Biol. Chem. 244:6049 (1969)) in 0.05 M phosphate buffer, pH 7.8 with NaCl ranging from 0 to 0.4 M. In doing this, the effect of ionic strength on the rate of the O2.^−/cytochrome c reaction was corrected for.
Kinetic salt effect. The effect of the ionic strength (μ) on the catalytic rate constant was assessed using eq which is based on Debye-Huckel relation (Hambright et al, J. Porphyrins Phthalocyanines 7:139-146 (2003)) for the effect of the ionic strength of the solution on the activity coefficient of an ion. log k=log kref+2AzAzBμ^1/2/(1+μ^1/2) The k is the rate constant at any given ionic strength, while kref is the rate constant at μ=0. The A is a collection of physical constants with a value of 0.509 and zA and zB are the charges of the reacting species. The equation predicts a linear plot of log k vs μ^1/2/(1+μ^1/2). Eq assumes a coefficient of 1.0 (βai) for μ^1/2 in the denominator, i.e., the distance of the closest approach, ai to be 3 A and β is a physical constant, […]. It is doubtful whether great significance can be attributed to the ai, thus to the product zAzB (Hambright et al, J. Porphyrins Phthalocyanines 7:139-146 (2003)), especially so in the light of the bulkiness, high charge and solvation shell of the metalloporphyrins. Accounting for the mono- and diprotonated phosphates as the major species at pH 7.8 (pKa=7.2), and the concentration of the NaCl, the ionic strength was calculated using equation μ=½ Σ mizi^2 where mi is the molality and zi the charge of the given ion.
The slopes of the plots are −6.48 (MnTE-2-PyP^5+), −7.02 (MnTMOE-2-PyP^5+), −7.38 (MnTDMOE-2-ImP^5+), and −4.15 (MnTnBu-2-PyP^5+). As expected (Hambright et al, J. Porphyrins Phthalocyanines 7:139-146 (2003)), when the reactants are ions of opposite charges, the higher the ionic strength of the solution the lower the rate constants, i.e. the slopes are negative. The slopes of the plots indicate clearly the impact of the local dielectric constant on the kcat. The kcat of the most lipophilic compound, MnTnBu-2-PyP^5+ is 40% less sensitive to the changes in ionic strength of the solution than is the kcat of its methoxyethyl analogue, MnTMOE-2-PyP^5+.

[2] = Electrochemistry: cyclic voltammetry of the Mn(III)/Mn(II) redox couple; assay type: physicochemical; settings: for Metal-centered redox potential E1/2: Mn(III)/Mn(II), 0.1 M NaCl, 0.05 M phosphate buffer, pH 7.8, ±3 mV
Procedure: Electrochemistry. Measurements were performed on a CH Instruments Model 600 Voltammetric Analyzer (Spasojevic and Batinic-Haberle, Inorg. Chim. Acta. 317:230-242 (2001), Batinic-Haberle et al, J. Biol. Chem. 273:24521-24528 (1998), Batinic-Haberle et al, Inorg. Chem. 38:4011-4022 (1999)). A three-electrode system in a small volume cell (0.5 mL to 3 mL), with a 3 mm-diameter glassy carbon button working electrode (Bioanalytical Systems), plus the Ag/AgCl reference and Pt auxiliary electrodes was used. Argon-purged solutions contained 0.05 M phosphate buffer, pH 7.8, 0.1 M NaCl, and 0.5 mM metalloporphyrin. The scan rates were 0.01-0.5 V/s, typically 0.1 V/s. The potentials were standardized against the potassium ferrocyanide/ferricyanide (Kolthof and Tomsicek, J. Phys. Chem. 39:945 (1935)) and/or against MnTE-2-PyP^5+ (Spasojevic and Batinic-Haberle, Inorg. Chim. Acta. 317:230-242 (2001), Batinic-Haberle et al, J. Biol. Chem. 273:24521-24528 (1998), Batinic-Haberle et al, Inorg. Chem. 38:4011-4022 (1999)).
Electrochemistry. All cyclic voltammograms, ascribed to the Mn(III)/Mn(II) redox couple, are reversible. The E1/2 of di-ortho ethylimidazolylporphyrin, MnTDE-2-ImP^5+ is 118 mV more positive than of ortho ethylpyridylporphyrin, MnTE-2-PyP^5+ (+228 mV vs NHE), as a consequence of charge delocalization. A similar difference of 114 mV was seen between their methoxyethyl analogues. Mn porphyrins bearing N-pyridyl substituents of the same length, MnTnBu-PyP^5+ and MnTMOE-2-PyP^5+, have nearly identical E1/2 of +254 and +251 mV vs NHE, which is 26 and 23 mV higher than that of MnTE-PyP^5+.

[3] = system: SOD-deficient JI132 E. coli; assay: Aerobic growth of SOD-deficient E. coli; assay type: cell-based; settings: for aerobic growth of SOD-deficient E. coli: 5AA minimal medium
How it was run: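 Strains were AB1157 and its sodA sodB mutant JI132, precultured overnight in M9CA at 37 °C, then diluted to 3×10^7 cells/mL in M9CA or, after washing, in 5AA minimal medium. Mn porphyrins at 0.1 to 30 μM were present during aerobic shaking at 37 °C. Growth rate was followed by turbidity at 700 nm.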

Row | SMILES | slope of log kcat vs μ^1/2/(1+μ^1/2) [1] | Metal-centered redox potential E1/2 [2] | aerobic growth of SOD-deficient E. coli ([3]; 3 μM) | aerobic growth of SOD-deficient E. coli ([3]; 25 μM) | protection of SOD-deficient E. coli ([3]; M9CA medium, 3 μM) | protection of E. coli from oxidative stress ([3]; ≦3 μM levels (FIG. 10: 5AA minimal medium)) | E1/2 more positive / higher than that of MnTE-2-PyP^5+ ([2]; difference vs MnTE-2-PyP^5+ (+228 mV vs NHE))
1 | COCCn1cc[n+](CCOC)c1-c1c2nc(c(-c3n(CCOC)cc[n+]3CCOC)c3ccc([n-]3)c(-c3n(CCOC)cc[n+]3CCOC)c3nc(c(-c4n(CCOC)cc[n+]4CCOC)c4ccc1[n-]4)C=C3)C=C2.[Mn+3] [MnTDMOE-2-ImP^5+, Mn(III) tetrakis 5,10,15,20-tetrakis[N,N′-di(2-methoxyethyl)imidazolium-2-yl]porphyrin] | −7.38 | +365 mV vs NHE | the most effective methoxyethyl porphyrin | not far behind | the most effective (next to n-butyl and n-hexyl) | the most protective | –
2 | COCC[n+]1ccccc1-c1c2nc(c(-c3cccc[n+]3CCOC)c3ccc([n-]3)c(-c3cccc[n+]3CCOC)c3nc(c(-c4cccc[n+]4CCOC)c4ccc1[n-]4)C=C3)C=C2.[Mn+3] [MnTMOE-2-PyP^5+, Mn(III) tetrakis 5,10,15,20-tetrakis[N-(2-methoxyethyl)pyridinium-2-yl]porphyrin] | −7.02 | +251 mV vs NHE | – | not far behind | – | – | 23 mV
